Reference: US12624057B2, “Bisphosphonate quinolone conjugates and uses thereof” (BIOVINC, LLC, priority 2016, dated 2026)
Entries after “also recorded” stand apart in the source; their conditions may differ.

Legend:
[1] = system: planktonic S. aureus clinical osteomyelitis strains (MSSA and MRSA); assay: MIC by microdilution against planktonic clinical S. aureus strains; format: cell-based, Staphylococcus aureus; settings: for antimicrobial activity / MIC against planktonic S. aureus (in words): microdilution, 24 h
Experimental: (§1) Subsequently, the plate was incubated for 24 h/37° C. in a shaker to obtain optimal conditions for microbial growth and to prevent bacteria from forming biofilms. After incubation, the absorbance was measured once again. The following control samples were established: negative control sample one: sterile medium without microbes; negative control sample two: sterile medium without microbes implemented with DMSO (dimethyl sulfoxide, Sigma-Aldritch) to final concentration of 1% (v/v); positive control sample one: medium+microbes with no compound tested; positive control sample two: medium+microbes with no compound tested but implemented with DMSO to final concentration of 1% (v/v). […] To assess relative number of cells, the following calculations were performed. […] Next, the relative number of cells subjected to incubation with tested compounds were counted as follows: […].
as §1, with “Evaluation of the MIC of tested compounds against planktonic forms of clinical staphylococcal strains analyzed: To assess the impact of parent antibiotic and conjugates on microbial growth, 100 μl of microbial solutions of density 1×10^5 CFU/ml were placed into wells of 96-well test plates together with appropriate concentrations of tested compounds. […] Subsequently,” for “Subsequently,”, “plates were” for “the plate was”, “hrs/37°” for “h/37°”, “Sigma-Aldrich)” for “Sigma-Aldritch)”
The occurrence of opacification or lack of opacification of media was proof of pathogen growth or lack of growth, respectively. Additionally, bacterial solutions were cultured on the appropriate stable medium. Growth or lack of growth of bacterial colonies together with above-mentioned results from liquid cultures served as confirmation of results obtained spectrophotometrically.

[2] = Hydroxyapatite (HA) binding assay, spectroscopic analysis of supernatant; format: physicochemical; settings: supernatant at 0 hr versus 24 hrs, TSB medium
Experimental: Solutions containing BP-ciprofloxacin and HA spherules were introduced to wells of 24-well plate. […] Plates were shaken automatically in the spectrometer prior to assessment. Next, plates were left for 24 h/37° C./shaking. After 24 hours, absorbance was measured once again. To assess the relative concentration of the conjugate at 0 hr and 24 hrs, values of absorbance taken in the beginning and at the end of experiment were compared.
Spectroscopic analysis of 6 and 11 in Tryptic Soy Broth (TSB) microbiological media with the addition of HA spherules: Various conjugate concentrations were introduced to HA powder (spherules) suspended in TSB microbiological medium. Solutions containing BP-ciprofloxacin an HA spherules were introduced to wells of a 24-well plate. […] Plates were shaken automatically in the spectrometer prior to assessment. Next, plates were left for 24 hrs/37° C./shaking. After 24 hrs, absorbance was measured once again. To assess the relative concentration of the conjugate at 0 hr and 24 hrs, values of absorbance taken in the beginning and at the end of experiment were compared. The excitation slit, emission slit, integration time, and increment were optimized based on the concentration of samples.

[3] = system: planktonic S. aureus strain ATCC-6538; assay: Antimicrobial susceptibility testing in acidic versus basic/physiological pH; format: cell-based, Staphylococcus aureus; settings: acidic (pH 5) versus basic/physiological (pH 7.4)
Experimental: (§2) Antimicrobial susceptibility testing of BP-ciprofloxacin against planktonic cultures of S. aureus strain ATCC-6538 in acidic versus basic pH: This experimental setting was performed in the same manner as described previously for disc diffusion testing, but microbiological media was adjusted to pH 7.4 and pH 5 using KOH or HCL solution and measured using a universal pH-indicator (Merck, Poland).
as §2, with “6” for “BP-ciprofloxacin”, “physiological” for “basic”

[4] = system: S. aureus strain ATCC-6538 (MSSA) and clinical MRSA strain MR4-CIPS; assay: Time-kill assay (CLSI); format: cell-based, Staphylococcus aureus; settings: for time-kill profile (in words): 1× and ½× MIC, 24 hrs
Experimental: Time-kill assay for BP-ciprofloxacin conjugate against S. aureus strain ATCC-6538 (MSSA) and clinical MRSA strain MR4-CIPS: This experiment was performed in the same manner as described previously under the subheading: “Evaluation of MIC of tested compounds against planktonic forms of clinical staphylococcal strains analyzed”, but absorbance assays (at 580 nm wavelength) were taken in hour: 0, 1, 2, 4, 8, 16, 24.

[5] = system: Aggregatibacter actinomycetemcomitans biofilms on titanium implants; assay: Rat jawbone peri-implant osteomyelitis model, second animal experiment; settings: for reduction of mean CFU/gram of tissue versus control (in words): single high dose 10 mg/kg, 10 mg/kg

**Q.** For `O=C(O)c1cn(C2CC2)c2cc(N3CCN(C(=O)Oc4ccc(CC(P(=O)(O)O)P(=O)(O)O)cc4)CC3)c(F)cc2c1=O` [Compound 6, 1-cyclopropyl-7-(4-((4-(2,2-diphosphonoethyl)phenoxy)carbonyl)piperazin-1-yl)-6-fluoro-4-oxo-1,4-dihydroquinoline-3-carboxylic acid], which “MIC compared with mean bactericidal concentration (MBC)” value ([1]; AST data) is on record?
**A.** The value was “equivalent to their mean bactericidal concentrations”.

**Q.** What about the “antimicrobial activity / MIC against planktonic S. aureus (in words)” value (shortened to “antimicrobial activity / MIC”) [1] of the same compound?
**A.** Its value is “effective bactericidal activity”.

**Q.** What about the “antimicrobial activity / MIC” value ([1]; listed as BCC) of the same compound?
**A.** Its value is “retains significant bactericidal activity”.

**Q.** What about the “antimicrobial activity / MIC” value ([1]; listed as BP-ciprofloxacin) of the same compound?
**A.** Its value is “slightly greater concentrations of conjugate required to reach MIC than ciprofloxacin alone”.

**Q.** What about the “adsorption to hydroxyapatite (HA)” value [2] of the same compound?
**A.** Its value is “significant adsorption and retention of the conjugate by HA; also recorded: effective adsorption and retention to HA spherules”.

**Q.** What about the “adsorption to hydroxyapatite (HA)” value ([2]; listed as BCC) of the same compound?
**A.** The value was “taken up by the HA beads; also recorded: confirms adsorption of conjugate to HA”.

**Q.** And the “adsorption to hydroxyapatite (HA)” value ([2]; listed as BP-ciprofloxacin)?
**A.** Its value is “significant adsorption and retention of the conjugate by HA”.

**Q.** What about the “effect of pH on antimicrobial activity / concentration to reach MIC50” value [3] of the same compound?
**A.** The value was “half the conjugate concentration; also recorded: slightly improved profile in acidic conditions”.

**Q.** And the “effect of pH on antimicrobial activity / concentration to reach MIC50” value ([3]; listed as BP-ciprofloxacin)?
**A.** The value was “half the conjugate concentration; also recorded: improved bactericidal profile in acidic”.

**Q.** What about the “time-kill profile (in words)” value [4] of the same compound?
**A.** The value was “sustained bactericidal activity over 24 hrs”.

**Q.** What about the “time-kill profile (in words)” value ([4]; listed as BP-ciprofloxacin) of the same compound?
**A.** The value was “strong bactericidal activity at 1 hr and up to 24 hrs”.

**Q.** What about the “time to bactericidal activity / evident prevention of growth” value ([4]; at half the MIC) of the same compound?
**A.** The value was 2 h.

**Q.** And the growth inhibition ([4]; at half the MIC, up to/after 24 hrs, versus controls)?
**A.** The growth inhibition was 50%.

**Q.** And the “time to bactericidal activity / evident prevention of growth” value ([4]; at half the MIC, listed as conjugate)?
**A.** Its value is no more than 1 h.

**Q.** And the “time to bactericidal activity” value ([4]; at the established MIC)?
**A.** Its value is no more than 1 h.

**Q.** What about the “prevention of bacterial growth” value ([4]; at the established MIC, up to 24 hrs) of the same compound?
**A.** Its value is 100%.

**Q.** What about the “peri-implant inflammation at resection (in words)” value ([5]; majority of animals in the treatment groups) of the same compound?
**A.** Its value is “non-inflamed peri-implant tissues”.

**Q.** What about the “significance of CFU reduction versus control (in words)” value ([5]; multiple low dose 0.3 mg/kg 3×/week) of the same compound?
**A.** The value was “not for the multiple low dose group”.

**Q.** And the “kill of Aa in peri-implant tissue” value ([5]; single dose 10 mg/kg)?
**A.** Its value is “approximately 6 log units”.

**Q.** And the “reduction of mean CFU/gram of tissue versus control (in words)” value [5]?
**A.** Its value is “revealed significance for the single high dose of 6 treatment as compared to the control; also recorded: greatest CFU reduction and efficacy was observed at the single high dose; also recorded: greatest efficacy was observed at a single high dose”.

**Q.** And the “reduction of mean CFU/gram of tissue versus control (in words)” value ([5]; listed as BCC)?
**A.** Its value is “greatest efficacy and was highly statistically significant; also recorded: greatest efficacy was again observed at a single high dose”.
